Molecules are shown by their SMILES. Counter-ions that a name gives are not always drawn.

The first experiment relates to phenylquinone-induced writhing reaction. As to the kind of experiment: Phenylquinone-induced writhing test on mice. The experiment is classed as in vivo. Conditions: Mus musculus, male NMRI mice; 25 mg/kg per os, 30 min before phenylquinone i.p. On the procedure:
The analgesic effectiveness of the compounds according to the invention was investigated in the phenylquinone-induced writhing test, modified according to I. C. Hendershot, J. Forsaith in J. Pharmacol. Exptl. Ther. 125, 237 (1959), on mice. Male NMRI mice with a weight between 25 and 30 g were used for this purpose. For each dose of substance, each 10 animals received, 30 minutes after the oral administration of a compound according to the invention, 0.3 ml per mouse of an 0.02% aqueous phenylquinone solution (phenylbenzoquinone manufactured by Sigma, Deisenhofen; solution prepared with the addition of 5% ethanol and kept on a water bath at 45° C.) administered intraperitoneally. Thereafter the animals were placed individually in observation cages. The number of pain-induced stretching movements (writhing reaction-straightening of the body with stretching of the rear extremities) was counted with the aid of a push-button counter. The Ed50 value (effective dose with 50% inhibition of writhing reaction) was calculated with a 95% confidence limit by means of regression analysis (evaluation program supplied by Martens EDV-Service, Eckental) from the dose-dependent decrease in the writhing reaction, by comparison with mice tested in parallel to which only phenylquinone had been administered.
Background: An intraperitoneal irritant provokes the stretching counted in writhing tests.
As usually defined, the inhibition is the share of the control response that was lost under treatment. High values mean strong suppression, low ones little suppression. In turn, `C[C@H](CN(C)C)[C@@](C)(O)c1cccc(O)c1` [(+17), (+)-(1R,2R)-3-(3-dimethylamino-1-hydroxy-1,2-dimethylpropyl)-phenolhydrochloride] had an inhibition at 25 mg/kg of 97.2%.
With `CC[C@](O)(c1cccc(OC(C)C)c1)[C@H](C)CN(C)C` (racemic) [(3), (2RS,3RS)-3-(3-isopropoxyphenyl)-1-dimethylamino-2-methylpentan-3-ol Hydrochloride], the inhibition at 25 mg/kg is 81.3%.
In the case of `CC[C@](O)(c1cccc(O)c1)[C@H](C)CN(C)C` (racemic) [(16), (2RS,3RS)-3-(3-dimethylamino-1-ethyl-1-hydroxy-2-methylpropyl)-phenol Hydrochloride], the inhibition at 25 mg/kg is 100%.
In turn, `COc1cccc([C@](C)(O)[C@H](C)CN(C)C)c1` [(+15), Hydrochloride] came in with an inhibition at 25 mg/kg of 95.2%.
Consider `C[C@@H](CN(C)C)[C@](C)(O)c1cccc(O)c1` [(−17), (−)-(1S,2S)-3-(3-dimethylamino-1-hydroxy-1,2-dimethylpropyl)-phenol Hydrochloride], for which testing at 25 mg/kg gave an inhibition of 58.3%.

The experiment is the same for the next values; noted with them: Mus musculus; male NMRI mice; oral administration 30 min before phenylquinone i.p.; dose with 50% inhibition of writhing reaction.
By ED50 is commonly meant the dose that gives a 50% effect, or the effect in half of the subjects. High values mean weaker potency, low ones greater potency. Take `CC[C@](O)(c1cccc(SC)c1)[C@H](C)CN(C)C.Cl` (racemic) [(9), (2RS,3RS)-1-dimethylamino-2-methyl-3-(3-methylsulphanylphenyl)-pentan-3-ol Hydrochloride]: the ED50 worked out at 12.8 mg/kg.
For `CC[C@](F)(c1cccc(O)c1)[C@H](C)CN(C)C.Cl` [(+18), (+)-(1R,2R)-3-(3-dimethylamino-1-ethyl-1-fluoro-2-methylpropyl)-phenol Hydrochloride], it took a dose of 15.7 mg/kg to reach the 50% effect level (ED50).
In turn, `CC[C@](O)(c1cccc(OC)c1)[C@H](C)CN(C)C` [(+1), (+)-(2R,3R)-1-dimethylamino-3-(3-methoxyphenyl)-2-methylpentan-3-ol Hydrochloride] yielded a median effective dose (ED50) of 1.1 mg/kg.
In turn, `COc1cccc([C@](C)(O)[C@H](C)CN(C)C)c1` (racemic) [(15), Hydrochloride] returned an ED50 of 3.8 mg/kg.
Compound `CC[C@](O)(c1ccc2ccoc2c1)[C@H](C)CN(C)C.Cl` (racemic) [(10), (2RS,3RS)-3-benzofuran-6-yl-1-dimethylamino-2-methylpentan-3-ol Hydrochloride] came in with an ED50 of 12.9 mg/kg.
The same measure, in the same setting: the same measure for `CC[C@@](O)(c1cccc(OC)c1)[C@@H](C)CN(C)C` [(−1), (−)-(2S,3S)-1-dimethylamino-3-(3-methoxyphenyl)-2-methylpentan-3-ol Hydrochloride]: 22.3 mg/kg; for `CC[C@H](c1cccc(O)c1)[C@H](C)CN(C)C.Cl` [(+21), (+)-(1S,2R 2S)-3-(3-dimethylamino-1-ethyl-2-methylpropyl)-phenol hydrochloride]: 1.9 mg/kg; for `COc1cccc(C(O)(CCN(C)C)C(C)(C)C)c1.Cl` (racemic) [(14), (3RS)-1-dimethylamino-3-(3-methoxyphenyl)-4,4-dimethylpentan-3-ol Hydrochloride]: 10.5 mg/kg.
Same read-out and setting: under `CC[C@](O)(c1ccc(Cl)c(Cl)c1)[C@H](C)CN(C)C.Cl` (racemic) [(2), (2RS,3RS)-3-(3,4-dichlorophenyl)-1-dimethylamino-2-methylpentan-3-ol Hydrochloride] stands 13.2 mg/kg; under `CC[C@](O)(c1cccc(Cl)c1)[C@H](C)CN(C)C.Cl` (racemic) [(4), (2RS,3RS)-3-(3-chlorophenyl)-1-dimethylamino-2-methylpentan-3-ol Hydrochloride], 15.5 mg/kg; under `CC[C@](O)(c1cccc(F)c1)[C@H](C)CN(C)C.Cl` (racemic) [(7), (2RS, 3RS)-1-dimethylamino-3-(3-fluorophenyl)-2-methylpentan-3-ol Hydrochloride], 27.3 mg/kg.
On the same count and under the same terms, the same measure for `CC[C@](O)(c1cccc(C)c1)[C@H](C)CN(C)C.Cl` (racemic) [(6), (2RS,3RS)-1-dimethylamino-2-methyl-3-(3-m-tolyl)-pentan-3-ol Hydrochloride]: 11.8 mg/kg.
On to `CC[C@@](O)(c1cccc(O)c1)[C@@H](C)CN(C)C` [(−16), (-) (2S,3S) 1S,2S)-3-(dimethylamino-1-ethyl-1-hydroxy-2-methylpropyl)-phenol Hydrochloride], for which the 50% effect level (ED50) was put at a dose of 16.1 mg/kg.
Take `CC[C@](O)(c1cccc(O)c1)[C@H](C)CN(C)C` [(+16), (+) (2S,3S 1R,2R)-3-(dimethylamino-1-ethyl-1-hydroxy-2-methylpropyl)-phenol Hydrochloride]: the ED50 is 1 mg/kg.
Still for that read-out and setting: the same measure for `CC[C@](O)(c1cccc(OC)c1)[C@H](C)CN(C)C.Cl` (racemic) [(1), (2RS,3RS)-1-dimethylamino-3-(3-methoxyphenyl)-2-methylpentan-3-ol Hydrochloride]: 5.8 mg/kg; for `CC[C@](O)(c1cccc(C(F)(F)F)c1)[C@H](C)CN(C)C.Cl` (racemic) [(5), (2RS,3RS)-1-dimethylamino-2-methyl-3-(3-trifluoromethylphenyl)-pentan-3-ol Hydrochloride]: 8.3 mg/kg; for `CC[C@](O)(c1cccc(C(F)F)c1)[C@H](C)CN(C)C.Cl` (racemic) [(8), (2RS,3RS)-3-(3-difluoromethylphenyl)-1-dimethylamino-2-methylpentan-3-ol Hydrochloride]: 12.9 mg/kg.
Still for that read-out and setting: the same measure for `CCCC(O)(CCN(C)C)c1cccc(OC)c1.Cl` (racemic) [(12), (3RS)-1-dimethylamino-3-(3-methoxyphenyl)-hexan-3-ol Hydrochloride]: 19.9 mg/kg.

These data come from patent USRE39593E1 (Gruenenthal GmbH, priority 1994, dated 2007).
